Measurements as given in patent US20150306090A1, “ORALLY ADMINISTERED MEDICAL COMPOSITION” (ASTELLAS PHARMA INC., priority 2012, published 2015).
Values after ≈ are worked out from the molar mass of the structure shown.

Test: physchem
Format: physicochemical
Description: Further, the current product (Vesicare (registered trademark)) has been placed on the market, as a drug-immediate-release formulation. Furthermore, although the active ingredient is not the same, a bi-layered tablet comprising a modified release portion containing tamsulosin or a pharmaceutically acceptable salt thereof, and an immediate release portion containing solifenacin or a pharmaceutically acceptable salt thereof, is known (Patent literature 7).

solubility (pH 6.8, aqueous buffer): 430 mg/mL (≈ 1190 mM) | solubility (water): 610 mg/mL (≈ 1680 mM)
SMILES: O=C(O[C@H]1CN2CCC1CC2)N1CCc2ccccc2[C@@H]1c1ccccc1 [solifenacin, (R)-quinuclidin-3-yl (S)-1-phenyl-1,2,3,4-tetrahydroisoquinoline-2-carboxylate]
